{"source": "patent US20170296500A1", "about": "“Uses of Chlorogenic Acid in the Preparation of Medicaments for Treatment of Psoriasis” (SICHUAN JIUZHANG BIOLOGICAL SCIENCE AND TECHNOLOGY CO., LTD, priority 2014, published 2017)", "key": {"[1]": {"tested_on": "psoriasiform pathological change in aural region of guinea pigs", "test": "Pharmacodynamic test, psoriasis vulgaris model induced by 5% propranolol emulsion on guinea pig ears; Baker pathologic scores", "format": "in vivo", "settings": "14 days; for Pathology of lesional tissue after administration (light microscope): guinea pig ear, HE stain; for Baker scores compared with model group: P<0.01", "from_the_text": "60 guinea pigs adapted to diet one week before initiation of experimentation, and both ears of guinea pigs were unhaired, and randomly divided into blank group and experimental group, with 12 guinea pigs for blank group and 48 guinea pigs for experimental group. In experimental group, 5% propranolol dinitrate emulsion was evenly applied to bilateral ear back of guinea pigs, while in blank group, blank medium was applied for 14 days, with a thickness of about 1.0 mm for each time and 4 times per day, to induce pathologic change of psoriasis vulgaris-appearing. […] Based on body weight and conditions of establishing model, the remaining 44 guinea pigs were divided into 4 groups using random digits table, i.e. model group, positive group, low-dose group of chlorogenic acid, high-dose group of chlorogenic acid, 11 guinea pigs for each group.\nAfter administrating for 14 days, samples were taken, and 12% chloral hydrate was peritoneally injected at a dose of 0.35 mL/100 g. After anesthesia, blood sample was collected from abdominal aorta, and animals were sacrificed. Both ear tissues of guinea pigs were scissored and fixed in 10% formaldehyde solution. Ear tissues of guinea pigs were taken out, embedded in paraffin, sliced, normally stained with HE, and sealed with neutral gum. Pathological change of ears was observed under optical microscope, investigated and taken a picture in 10×20 vision. Referring to Baker method, pathologic scores of tissues were assessed: the presence of Munro microabscess in corneum layer scores 2.0 point; hyperkeratosis scores 0.5 point; parakeratosis scores 1.0 point; stratum granulosum thinning and disappearing scores 1.0 point; acanthosis scores 1.0 point; skin process extension and tortuous basal lamina are marked 0.5, 1.0, 1.5 according to light, middle, and heavy degrees, respectively; mononuclear cells and polymorphonuclear cells infiltration in dermis is marked 0.5, 1.0, 1.5 according to light, middle, and heavy degrees, respectively; obvious mastoid extrusion scores 0.5 point; telangiectasis in superficial layer of dermis scores 0.5 point."}, "[2]": {"parameters": "species or system guinea pigs", "settings": "guinea pig, in vivo", "procedure": "0.9% sodium chloride solution was administrated to blank group and model group; Positive drug control group was given suspension of acitretin A capsule at 2.25 mg/kg, and the amount of intragastric administration is all 1 mL/100 g for each time, twice a day; 20 mg/kg chlorogenic acid was administrated to the low-dose group by intramuscular injection, and 40 mg/kg chlorogenic acid was administrated to the high-dose group by intramuscular injection, using a volume of 0.2 ml/10 g, once a day.\nBefore guinea pigs were sacrificed, blood was drawn via peritoneal cavity, and urea nitrogen and creatinine were detected by enzymic method, while glutamate pyruvate transaminase and glutamic-oxalacetic transaminase were tested using rate method."}, "[3]": {"tested_on": "polymorphonuclear leukocytes (PMN)", "test": "PMN transport into zymosan A-soaked gelatin sponge in peritoneal cavity of mice (psoriasis pustulosa test)", "format": "in vivo, Kunmin mice", "procedure": "Kunmin mice were randomly divided into 3 groups. Blank control group: according to body weight, about 0.5 ml of peanut oil was administrated to mice by gavage everyday; for high-dose group of chlorogenic acid (20 mg·kg^−1), chlorogenic acid was administrated to each mouse at a dose of 0.4 ml/20 g by peritoneal injection; for low-dose group of chlorogenic acid (10 mg·kg^−1), chlorogenic acid was administrated to each mouse at a dose of 0.4 ml/20 g by peritoneal injection. Following phasic points were observed, i.e. before administration (day 0), days 1, 2, 4, 6 after administration.\nAfter a piece of sterile gelatin sponge (1 cm^2) was immersed in 0.75% zymosan A for 30 min, it was placed in peritoneal cavity of mice by surgery, and mice received standard diet. 24 hours after surgery, 5 mice of same phasic point were decapitated, and the gelatin sponges were taken out and stored in 0.5 ml cell eluant for culturing 30 min at 37 ° C., respectively. The gelatin sponges were washed with 0.01 mol/LPBS0.5 ml thrice, respectively, and the eluant was collected, passed through 40 μm nylon screen cloth, centrifuged, and the volume was 0.5 ml. Cells in above eluants were counted by automatic blood cell counter, and the amount of polymorphonuclear leukocytes (PMN) was read."}}, "note": "Where two headings read alike, the source gives them in different places."}
{"compound": "COc1cc(C)c(/C=C/C(C)=C/C=C/C(C)=C/C(=O)O)c(C)c1C", "note": "[Acitretin A capsule, Acitretin A, reference compound]", "values": [{"measurement": "Pathology of lesional tissue after administration (light microscope)", "setting": "[1]; positive group 2.25 mg/kg intragastric twice a day", "result": "obvious improvement"}, {"measurement": "Baker scores compared with model group", "setting": "[1]; guinea pigs, positive group 2.25 mg/kg intragastric twice a day", "result": "significantly different"}]}
{"compound": "O=C(/C=C/c1ccc(O)c(O)c1)O[C@@H]1C[C@](O)(C(=O)O)C[C@@H](O)[C@H]1O", "note": "[chlorogenic acid]", "values": [{"measurement": "Pathology of lesional tissue after administration (light microscope)", "setting": "[1]; chlorogenic group 20 and 40 mg/kg i.m.", "result": "obvious improvement"}, {"measurement": "Baker scores compared with model group", "setting": "[1]; guinea pigs, 20 and 40 mg/kg intramuscular injection once a day", "result": "significantly different"}, {"measurement": "Baker score of low-dose group (20 mg/kg) relative to high-dose group (40 mg/kg)", "setting": "[1]; guinea pigs, intramuscular injection once a day, not dose-dependent", "result": "superior"}, {"measurement": "ALT", "setting": "[2]; 20 mg/kg", "result": "33.40 ± 7.26", "unit": "u/L"}, {"measurement": "AST", "setting": "[2]; 20 mg/kg", "result": "29.10 ± 7.29", "unit": "u/L"}, {"measurement": "Serum creatinine", "setting": "[2]; 20 mg/kg", "result": "88.33 ± 7.80", "unit": "µmol/L"}, {"measurement": "Urea nitrogen", "setting": "[2]; 20 mg/kg", "result": "4.92 ± 0.63", "unit": "mmol"}, {"measurement": "ALT", "setting": "[2]; 40 mg/kg", "result": "32.30 ± 6.07", "unit": "u/L"}, {"measurement": "AST", "setting": "[2]; 40 mg/kg", "result": "24.80 ± 2.57", "unit": "u/L"}, {"measurement": "Serum creatinine", "setting": "[2]; 40 mg/kg", "result": "87.27 ± 4.67", "unit": "µmol/L"}, {"measurement": "Urea nitrogen", "setting": "[2]; 40 mg/kg", "result": "4.98 ± 0.71", "unit": "mmol"}, {"measurement": "Chemotactic activity of PMN in mice", "setting": "[3]; 10 and 20 mg/kg peritoneal injection", "result": "significantly reduce"}, {"measurement": "PMN transport numbers", "setting": "[3]; high dose group 20 mg/kg peritoneal injection, Day 0 (before administration)", "result": "7.60 ± 6.07 ×10^9/L"}, {"measurement": "PMN transport numbers", "setting": "[3]; high dose group 20 mg/kg peritoneal injection, Day 1", "result": "1.54 ± 0.26 ×10^9/L"}, {"measurement": "PMN transport numbers", "setting": "[3]; high dose group 20 mg/kg peritoneal injection, Day 2", "result": "1.20 ± 2.14 ×10^9/L"}, {"measurement": "PMN transport numbers", "setting": "[3]; high dose group 20 mg/kg peritoneal injection, Day 4", "result": "1.15 ± 0.89 ×10^9/L"}, {"measurement": "PMN transport numbers", "setting": "[3]; high dose group 20 mg/kg peritoneal injection, Day 6", "result": "1.10 ± 1.29 ×10^9/L"}, {"measurement": "PMN transport numbers", "setting": "[3]; low dose group 10 mg/kg peritoneal injection, Day 0 (before administration)", "result": "6.98 ± 1.71 ×10^9/L"}, {"measurement": "PMN transport numbers", "setting": "[3]; low dose group 10 mg/kg peritoneal injection, Day 1", "result": "4.92 ± 2.63 ×10^9/L"}, {"measurement": "PMN transport numbers", "setting": "[3]; low dose group 10 mg/kg peritoneal injection, Day 2", "result": "2.67 ± 1.33 ×10^9/L"}, {"measurement": "PMN transport numbers", "setting": "[3]; low dose group 10 mg/kg peritoneal injection, Day 4", "result": "1.98 ± 0.90 ×10^9/L"}, {"measurement": "PMN transport numbers", "setting": "[3]; low dose group 10 mg/kg peritoneal injection, Day 6", "result": "1.62 ± 0.58 ×10^9/L"}, {"measurement": "Inhibitory action on chemotactic activity of PMN, high dose group (20 mg/kg) compared with low dose group (10 mg/kg)", "setting": "[3]; peritoneal injection", "result": "stronger inhibitory action"}]}
